# Experimental data from patent US20050197350A1, “Novel quinoline, tetrahydroquinazoline, and pyrimidine derivatives and methods of treatment related to the use thereof” (TAISHO PHARMACEUTICAL CO., LTD., priority 2003, published 2005).
# Molecular target: MCH receptor (Homo sapiens, UniProt Q99705)
# Assay: High throughput functional screening FLIPR/FDSS6000 (intracellular Ca2+ evoked by MCH)
# Assay type: cell-based
# Conditions: FLIPR/FDSS, antagonist activity vs 50 nM MCH; class by percent of control at 10^−7 M or IC50; read-out: class
# In short: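 For antagonist testing, compound-treated cells (30 min, 37 °C) were stimulated with 50 nM MCH and intracellular Ca2+ followed by Fluo4 fluorescence on FLIPR/FDSS6000. Receptor was a constitutively active, non-endogenous MCH receptor; dye loading 4 μM Fluo4-AM, 1 h, 37 °C.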
row,IC50 [nM],SMILES
1,> 200,"Cc1cc(N[C@H]2CC[C@@H](C(=O)N[C@H](C)c3ccccc3F)CC2)nc2ccccc12 [Example 3311, cis-N-[(1R)-1-(2-fluorophenyl)ethyl]-4-[(4-methylquinolin-2-yl)amino]cyclohexanecarboxamide]"
2,< 50,"Cc1cc(N[C@H]2CC[C@@H](C(=O)N[C@@H](C)c3ccccc3F)CC2)nc2ccccc12 [Example 3312, cis-N-[(1S)-1-(2-fluorophenyl)ethyl]-4-[(4-methylquinolin-2-yl)amino]cyclohexanecarboxamide]"
3,50 to 200,"Cc1cc(N[C@H]2CC[C@@H](C(=O)N[C@H](C)c3ccccc3C(F)(F)F)CC2)nc2ccccc12 [Example 3313, cis-4-[(4-methylquinolin-2-yl)amino]-N-{(1R)-1-[2-(trifluoromethyl)phenyl]ethyl}cyclohexanecarboxamide]"
4,< 50,"Cc1cc(N[C@H]2CC[C@@H](C(=O)N[C@@H](C)c3ccccc3C(F)(F)F)CC2)nc2ccccc12 [Example 3314, cis-4-[(4-methylquinolin-2-yl)amino]-N-{(1S)-1-[2-(trifluoromethyl)phenyl]ethyl}cyclohexanecarboxamide]"
5,< 50,"Cc1cc(N[C@H]2CC[C@@H](C(=O)N[C@@H](C)c3cccc(C(F)(F)F)c3)CC2)nc2ccccc12 [Example 3315, cis-4-[(4-methylquinolin-2-yl)amino]-N-{(1S)-1-[3-(trifluoromethyl)phenyl]ethyl}cyclohexanecarboxamide]"
6,50 to 200,"COc1ccccc1NC(=O)N[C@H]1CC[C@@H](Nc2ncc(C)c(N(C)C)n2)CC1 [Example 3321, N-(cis-4-{[4-(dimethylamino)-5-methylpyrimidin-2-yl]amino}cyclohexyl)-N′-(2-methoxyphenyl)urea]"
7,> 200,"COc1cccc(NC(=O)N[C@H]2CC[C@@H](Nc3ncc(C)c(N(C)C)n3)CC2)c1 [Example 3322, N-(cis-4-{[4-(dimethylamino)-5-methylpyrimidin-2-yl]amino}cyclohexyl)-N′-(3-methoxyphenyl)urea]"
8,< 50,"COc1ccc(NC(=O)N[C@H]2CC[C@@H](Nc3ncc(C)c(N(C)C)n3)CC2)cc1OC [Example 3323, N-(3,4-dimethoxyphenyl)-N′-(cis-4-{[4-(dimethylamino)-5-methylpyrimidin-2-yl]amino}cyclohexyl)urea]"
9,50 to 200,"Cc1cnc(N[C@H]2CC[C@@H](NC(=O)Nc3ccccc3F)CC2)nc1N(C)C [Example 3324, N-(cis-4-{[4-(dimethylamino)-5-methylpyrimidin-2-yl]amino}cyclohexyl)-N′-(2-fluorophenyl)urea]"
10,50 to 200,"Cc1cnc(N[C@H]2CC[C@@H](NC(=O)Nc3cccc(F)c3)CC2)nc1N(C)C [Example 3325, N-(cis-4-{[4-(dimethylamino)-5-methylpyrimidin-2-yl]amino}cyclohexyl)-N′-(3-fluorophenyl)urea]"
11,< 50,"Cc1cnc(N[C@H]2CC[C@@H](NC(=O)Nc3ccc(F)cc3)CC2)nc1N(C)C [Example 3326, N-(cis-4-{[4-(dimethylamino)-5-methylpyrimidin-2-yl]amino}cyclohexyl)-N′-(4-fluorophenyl)urea]"
12,50 to 200,"Cc1cnc(N[C@H]2CC[C@@H](NC(=O)Nc3ccc(F)c(F)c3)CC2)nc1N(C)C [Example 3327, N-(3,4-difluorophenyl)-N′-(cis-4-{[4-(dimethylamino)-5-methylpyrimidin-2-yl]amino}cyclohexyl)urea]"
13,< 50,"Cc1cnc(N[C@H]2CC[C@@H](NC(=O)Nc3ccccc3OC(F)(F)F)CC2)nc1N(C)C [Example 3330, N-(cis-4-{[4-(dimethylamino)-5-methylpyrimidin-2-yl]amino}cyclohexyl)-N′-[2-(trifluoromethoxy)phenyl]urea]"
14,50 to 200,"Cc1cnc(N[C@H]2CC[C@@H](NC(=O)Nc3ccc(F)c(Cl)c3)CC2)nc1N(C)C [Example 3331, N-(3-chloro-4-fluorophenyl)-N′-(cis-4-{[4-(dimethylamino)-5-methylpyrimidin-2-yl]amino}cyclohexyl)urea]"
15,50 to 200,"Cc1cnc(N[C@H]2CC[C@@H](NC(=O)Nc3ccc(Cl)cc3)CC2)nc1N(C)C [Example 3333, N-(4-chlorophenyl)-N′-(cis-4-{[4-(dimethylamino)-5-methylpyrimidin-2-yl]amino}cyclohexyl)urea]"
16,50 to 200,"Cc1cnc(N[C@H]2CC[C@@H](NC(=O)Nc3cc(C(F)(F)F)cc(C(F)(F)F)c3)CC2)nc1N(C)C [Example 3334, N-[3,5-bis(trifluoromethyl)phenyl]-N′-(cis-4-{[4-(dimethylamino)-5-methylpyrimidin-2-yl]amino}cyclohexyl)urea]"
17,< 50,"Cc1cnc(N[C@H]2CC[C@@H](NC(=O)Nc3ccc(Br)cc3)CC2)nc1N(C)C [Example 3335, N-(4-bromophenyl)-N′-(cis-4-{[4-(dimethylamino)-5-methylpyrimidin-2-yl]amino}cyclohexyl)urea]"

row,IC50 [nM],SMILES
1,50 to 200,"Cc1ccccc1NC(=O)N[C@H]1CC[C@@H](Nc2ncc(C)c(N(C)C)n2)CC1 [Example 3336, N-(cis-4-{[4-(dimethylamino)-5-methylpyrimidin-2-yl]amino}cyclohexyl)-N′-(2-methylphenyl)urea]"
2,50 to 200,"Cc1cnc(N[C@H]2CC[C@@H](NC(=O)Nc3ccc(Cl)c(Cl)c3)CC2)nc1N(C)C [Example 3337, N-(3,4-dichlorophenyl)-N′-(cis-4-{[4-(dimethylamino)-5-methylpyrimidin-2-yl]amino}cyclohexyl)urea]"
3,50 to 200,"Cc1cnc(N[C@H]2CC[C@@H](NC(=O)Nc3ccc(Cl)cc3Cl)CC2)nc1N(C)C [Example 3338, N-(2,4-dichlorophenyl)-N′-(cis-4-{[4-(dimethylamino)-5-methylpyrimidin-2-yl]amino}cyclohexyl)urea]"
4,50 to 200,"Cc1cnc(N[C@H]2CC[C@@H](NC(=O)Nc3cc(Cl)cc(Cl)c3)CC2)nc1N(C)C [Example 3339, N-(3,5-dichlorophenyl)-N′-(cis-4-{[4-(dimethylamino)-5-methylpyrimidin-2-yl]amino}cyclohexyl)urea]"
5,50 to 200,"Cc1cnc(N[C@H]2CC[C@@H](NC(=O)NCc3ccccc3)CC2)nc1N(C)C [Example 3341, N-benzyl-N′-(cis-4-{[4-(dimethylamino)-5-methylpyrimidin-2-yl]amino}cyclohexyl)urea]"
6,50 to 200,"Cc1cnc(N[C@H]2CC[C@@H](NC(=O)Nc3cc(Cl)ccc3Cl)CC2)nc1N(C)C [Example 3342, N-(2,5-dichlorophenyl)-N′-(cis-4-{[4-(dimethylamino)-5-methylpyrimidin-2-yl]amino}cyclohexyl)urea]"
7,> 200,"Cc1cnc(N[C@H]2CC[C@@H](NC(=O)Nc3cccc(Cl)c3Cl)CC2)nc1N(C)C [Example 3343, N-(2,3-dichlorophenyl)-N′-(cis-4-{[4-(dimethylamino)-5-methylpyrimidin-2-yl]amino}cyclohexyl)urea]"
8,> 200,"Cc1cnc(N[C@H]2CC[C@@H](NC(=O)Nc3c(Cl)cccc3C(F)(F)F)CC2)nc1N(C)C [Example 3344, N-[2-chloro-6-(trifluoromethyl)phenyl]-N′-(cis-4-{[4-(dimethylamino)-5-methylpyrimidin-2-yl]amino}cyclohexyl)urea]"
9,< 50,"Cc1cnc(N[C@H]2CC[C@@H](NC(=O)Nc3c(Cl)cc(Cl)cc3Cl)CC2)nc1N(C)C [Example 3345, N-(cis-4-{[4-(dimethylamino)-5-methylpyrimidin-2-yl]amino}cyclohexyl)-N′-(2,4,6-trichlorophenyl)urea]"
10,> 200,"Cc1cnc(N[C@H]2CC[C@@H](NC(=O)N(C)c3ccccc3F)CC2)nc1N(C)C [Example 3346, N′-(cis-4-{[4-(dimethylamino)-5-methylpyrimidin-2-yl]amino}cyclohexyl)-N-(2-fluorophenyl)-N-methylurea]"
11,50 to 200,"Cc1cnc(N[C@H]2CC[C@@H](NC(=O)N(C)c3ccccc3Cl)CC2)nc1N(C)C [Example 3347, N-(2-chlorophenyl)-N′-(cis-4-{[4-(dimethylamino)-5-methylpyrimidin-2-yl]amino}cyclohexyl)-N-methylurea]"
12,< 50,"Cc1cnc(N[C@H]2CC[C@@H](NC(=O)N(C)c3ccc(Cl)cc3Cl)CC2)nc1N(C)C [Example 3348, N-(2,4-dichlorophenyl)-N′-(cis-4-{[4-(dimethylamino)-5-methylpyrimidin-2-yl]amino}cyclohexyl)-N-methylurea]"
13,50 to 200,"CCN(C(=O)N[C@H]1CC[C@@H](Nc2ncc(C)c(N(C)C)n2)CC1)c1ccccc1OC(F)(F)F [Example 3349, N′-(cis-4-{[4-(dimethylamino)-5-methylpyrimidin-2-yl]amino}cyclohexyl)-N-ethyl-N-[2-(trifluoromethoxy)-phenyl]urea]"
14,< 50,"CCN(C(=O)N[C@H]1CC[C@@H](Nc2ncc(C)c(N(C)C)n2)CC1)c1ccccc1 [Example 3350, N′-(cis-4-{[4-(dimethylamino)-5-methylpyrimidin-2-yl]amino}cyclohexyl)-N-ethyl-N-phenylurea]"
15,< 50,"CCN(C(=O)N[C@H]1CC[C@@H](Nc2ncc(C)c(N(C)C)n2)CC1)c1ccc(OC(F)(F)F)cc1 [Example 3351, N′-(cis-4-{[4-(dimethylamino)-5-methylpyrimidin-2-yl]amino}cyclohexyl)-N-ethyl-N-[4-(trifluoromethoxy)-phenyl]urea]"
16,< 50,"Cc1cnc(N[C@H]2CC[C@@H](NC(=O)N(C)c3ccccc3OC(F)(F)F)CC2)nc1N(C)C [Example 3352, N′-(cis-4-{[4-(dimethylamino)-5-methylpyrimidin-2-yl]amino}cyclohexyl)-N-methyl-N-[2-(trifluoromethoxy)-phenyl]urea]"
17,< 50,"CCN(C(=O)N[C@H]1CC[C@@H](Nc2ncc(C)c(N(C)C)n2)CC1)c1ccc(Cl)cc1 [Example 3353, N-(4-chlorophenyl)-N′-(cis-4-{[4-(dimethylamino)-5-methylpyrimidin-2-yl]amino}cyclohexyl)-N-ethylurea]"
